Measurements from patent US10011586B2, “Heterocyclic compound, method for preparing the same, and pharmaceutical composition comprising the same” (Daewoong Pharmaceutical Co., Ltd., priority 2015, dated 2018).
Where two headings read alike, the source gives them in different places.

Tests used:
PRS enzyme = target: T1, PRS enzyme (Homo sapiens, UniProt P07814); assay: PRS enzyme activity inhibition experiment; format: biochemical
T1 construct: the portion corresponding to PRS in cDNA of EPRS was subcloned; made in house
T1 sequence (P07814 1007-1512 limits assumed): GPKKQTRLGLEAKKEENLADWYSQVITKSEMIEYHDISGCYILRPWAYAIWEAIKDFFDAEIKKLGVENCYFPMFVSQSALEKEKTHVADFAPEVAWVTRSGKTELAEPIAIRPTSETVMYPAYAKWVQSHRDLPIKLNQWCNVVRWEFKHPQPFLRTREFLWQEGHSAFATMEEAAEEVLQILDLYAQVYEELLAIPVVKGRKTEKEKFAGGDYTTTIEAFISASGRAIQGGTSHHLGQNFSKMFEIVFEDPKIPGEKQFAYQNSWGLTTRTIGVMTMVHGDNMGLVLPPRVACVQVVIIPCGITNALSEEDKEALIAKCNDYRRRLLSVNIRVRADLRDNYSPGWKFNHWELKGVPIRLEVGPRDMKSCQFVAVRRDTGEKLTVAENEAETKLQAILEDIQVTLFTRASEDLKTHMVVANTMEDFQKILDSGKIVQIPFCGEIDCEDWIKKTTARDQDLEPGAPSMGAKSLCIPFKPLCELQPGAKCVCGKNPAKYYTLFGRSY
Protocol: Specifically, the portion corresponding to PRS in cDNA of EPRS was subcloned, and the obtained high-purity PRS protein was purified and used in the experiment. The compounds (1 μM) prepared in Examples were added into the reaction buffer (20 mM KPO4 (pH 7.4), 6 mM MgAc, 5 mM ATP, […] tRNA, 0.5 mM DTT, […][^3H]proline (1 mCi/mL)) and allowed to react at 37° C. for 5 to 10 minutes. The reaction was terminated with 3M paper that was in advance dried by addition of 5% TCA. The radioactivity was measured using a liquid scintillation counter.
% Inhibition and IC50 values of the respective compounds were calculated and analyzed using Microsoft Excel or Sigma Plot 8.0. In Table 1, the results are divided into A, B and C according to the range of IC50.

NCI-H460 cells = assay: Cancer cell growth inhibition experiment (MTT assay); format: cell-based; details: Homo sapiens, lung cancer cell line, compounds 48 hours, cell viability by MTT assay
Protocol: NCl-H460 cells, lung cancer cell lines, were cultured in 5% CO2, 37° C. incubator using a flask for 75 cm^2 tissue culture. 96-well plates were used for the evaluation. These were prepared by differently applying at concentrations in the range of 6,000 to 12,000 cells/well according to the growth rate of the cell lines. The medium containing 5% FBS were dispensed in 200 μL/well and used. The medium were cultured for 24 hours. After confirming the cell status and dispensing form of a 96-well plate under a microscope, they were used for subsequent experiments. The compounds were evaluated at concentrations of 100, 30, 10, 3, 1, 0.3, 0.03, 0.01 μM. After removing the existing medium, the compounds with various concentrations were treated in an amount of 200 μL/well. The compounds-treated plates were further cultured for 48 hours, and the cell viabilities were measured by MTT assay to calculate IC50 values.
% Inhibition and IC50 values of the respective compounds were calculated and analyzed using Sigma Plot 8.0. In Table 2, the results are divided into A, B and C according to the range of IC50. The case where the derived IC50 is 3 μM or less is represented by “A”, the case where the IC50 is 3 to 10 μM is represented by “B”, and the case where the IC50 is 10 μM or higher is represented by “C”.

[1] = purified PRS protein subcloned from EPRS cDNA, [3H]proline, 37° C., 5 to 10 minutes, liquid scintillation counter, read-out: PRS IC50

| SMILES | IC50 (PRS enzyme; [1]) | IC50 (NCI-H460 cells) | IC50 (PRS enzyme) |
| --- | --- | --- | --- |
| Cc1c(-c2cccc(C(F)(F)F)c2)ccc2c1ncn2CC(=O)C[C@H]1NCCC[C@@H]1O [Example 21, 1-((2R,3S)-3-hydroxypiperidin-2-yl)-3-(4-methyl-5-(3-(trifluoromethyl)phenyl)-1H-benzo[d]imidazol-1-yl)propan-2-one] | 100 to 500 nM | ≥ 10 µM |  |
| COc1cccc(-c2ccc3c(ncn3CC(=O)C[C@H]3NCCC[C@@H]3O)c2C)c1 [Example 22, 1-((2R,3S)-3-hydroxypiperidin-2-yl)-3-(5-(3-methoxyphenyl)-4-methyl-1H-benzo[d]imidazol-1-yl)propan-2-one] | > 500 nM | ≥ 10 µM |  |
| O=C(C[C@H]1NCCC[C@@H]1O)Cn1cnc2ccc(-c3ccccc3F)nc21 [Example 43, 1-(5-(2-fluorophenyl)-3H-imidazo[4,5-b]pyridin-3-yl)-3-((2R,3S)-3-hydroxypiperidin-2-yl)propan-2-one] | 100 to 500 nM | ≤ 3 µM |  |
| OC(C[C@H]1NCCC[C@@H]1O)Cn1cnc2ccc(-c3cccc(Cl)c3)nc21 (stereo partly drawn) [Example 62, (2R,3S)-2-(3-(5-(3-chlorophenyl)-3H-imidazo[4,5-b]pyridin-3-yl)-2-hydroxypropyl)piperidin-3-ol] | < 100 nM | ≥ 10 µM |  |
| O=C(C[C@H]1NCCC[C@@H]1O)Cn1c(CO)nc2cc(-c3cccc(F)c3)ccc21 [Example 56, 1-(5-(3-fluorophenyl)-2-(hydroxymethyl)-1H-benzo[d]imidazol-1-yl)-3-((2R,3S)-3-hydroxypiperidin-2-yl)propan-2-one] | > 500 nM | ≥ 10 µM |  |
| O=C(C[C@H]1NCCC[C@@H]1O)Cn1cnc2ccc(-c3ccc(F)cc3)nc21 [Example 45, 1-(5-(4-fluorophenyl)-3H-imidazo[4,5-b]pyridin-3-yl)-3-((2R,3S)-3-hydroxypiperidin-2-yl)propan-2-one] | < 100 nM | 3 to 10 µM |  |
| O=C(C[C@H]1NCCC[C@@H]1O)Cn1cnc2cccc(-c3ccc(Cl)cc3)c21 [Example 51, 1-(7-(4-chlorophenyl)-1H-benzo[d]imidazol-1-yl)-3-((2R,3S)-3-hydroxypiperidin-2-yl)propan-2-one] |  | ≥ 10 µM | 100 to 500 nM |
| O=C(C[C@H]1NCCC[C@@H]1O)Cn1cnc2cccc(-c3ccccc3)c21 [Example 48, 1-((2R,3S)-3-hydroxypiperidin-2-yl)-3-(7-phenyl-1H-benzo[d]imidazol-1-yl)propan-2-one] | 100 to 500 nM | ≥ 10 µM |  |

Second part, led by results:

| IC50 (PRS enzyme; [1]) | IC50 (NCI-H460 cells) | SMILES | IC50 (PRS enzyme) |
| --- | --- | --- | --- |
| < 100 nM | ≤ 3 µM | O=C(C[C@H]1NCCC[C@@H]1O)Cn1cnc2ccc(-c3cccc(Cl)c3)nc21 [Example 46, 1-(5-(3-chlorophenyl)-3H-imidazo[4,5-b]pyridin-3-yl)-3-((2R,3S)-3-hydroxypiperidin-2-yl)propan-2-one] |  |
| < 100 nM | 3 to 10 µM | Cc1cccc(-c2ccc3ncn(CC(=O)C[C@H]4NCCC[C@@H]4O)c3c2)c1 [Example 30, 1-((2R,3S)-3-hydroxypiperidin-2-yl)-3-(6-(m-tolyl)-1H-benzo[d]imidazol-1-yl)propan-2-one] |  |
| < 100 nM | ≤ 3 µM | O=C(C[C@H]1NCCC[C@@H]1O)Cn1cnc2ccc(-c3cccc(F)c3)nc21 [Example 44, 1-(5-(3-fluorophenyl)-3H-imidazo[4,5-b]pyridin-3-yl)-3-((2R,3S)-3-hydroxypiperidin-2-yl)propan-2-one] |  |
| < 100 nM | 3 to 10 µM | Cc1cc(Cl)cc(-c2ccc3ncn(CC(=O)C[C@H]4NCCC[C@@H]4O)c3c2)c1 [Example 34, 1-(6-(3-chloro-5-methylphenyl)-1H-benzo[d]imidazol-1-yl)-3-((2R,3S)-3-hydroxypiperidin-2-yl)propan-2-one] |  |
| < 100 nM | ≤ 3 µM | O=C(C[C@H]1NCCC[C@@H]1O)Cn1cnc2ccc(-c3cc(F)cc(Cl)c3)cc21 [Example 32, 1-(6-(3-chloro-5-fluorophenyl)-1H-benzo[d]imidazol-1-yl)-3-((2R,3S)-3-hydroxypiperidin-2-yl)propan-2-one] |  |
